Assay results: patent US6518301B1, “Estrogen receptor-β ligands” (AstraZeneca AB, priority 1999, dated 2003)
Like-named read-outs stand apart in the source and are kept apart here.

Key:
[1] = molecular target: T1, ER-β (Gen Bank Accession #X99101) (Homo sapiens, UniProt Q92731); assay: Estrogen receptor binding, competition with [125I]-estradiol, ER-β
T1 construct: made in house; host or cells: in vitro transcription/translation, TNT T7 Quick-Coupled reticulocyte lysate (Promega Cat.#L1170)
Method: (§1) The ability of a compound to bind to ER was measured by its ability to compete for binding with the radio-labeled estrogen.
(§2) Receptor protein was prepared by in vitro transcription and translation of these plasmids using the TNT T7 Quick-Coupled reticulocyte lysate system (Promega Cat.#L1170). […] Programmed lysate was then aliquotted and stored frozen at −80° C.
(§3) Compounds were prepared as 1 mM stocks in DMSO, then diluted in the binding-assay buffer (in mM: 20 HEPES, 150 NaCl, 1 EDTA, 6 monothioglycerol and 10 Na2MoO4; 10% wt/vol glycerol, and pH =7.9) to a series of three-fold concentrated, 20 μL aliquots in a 96-well plate. Receptor aliquots were thawed on ice, and appropriately diluted (see below) in binding assay buffer. Diluted receptor (30 μL/each) was added to each well. […] Plates containing the final assay mixture were mixed on a shaker for 2 min and incubated overnight (˜16 h) at 4° C.
(§4) Receptor-bound and unbound radioligand was separated by filtration over sephadex columns. Columns (45 μL bed volume) were prepared by adding dry column media (Pharmacia Cat#G-25) to 96-well column templates (Millipore MultiScreen Plates Cat#MAHVN4510). Columns were then saturated with 300 μL of binding-assay buffer and stored at 4° C. Prior to use, stored columns were spun for 10 minutes at 2000 RPM, then washed twice with 200 μL of fresh binding buffer. The binding-assay mixtures (50 μL/each) were then applied to the columns, and an additional elution volume of 35 μL was immediately applied to the column. Receptor-bound radioligand was then cluted from the column by centrifugation for 10 minutes at 2000 RPM. A scintillation cocktail (145 μL) was added to the eluted radioligand/receptor complex, and radio-label was measured by liquid scintillation counting.

[2] = molecular target: T2, ER-α (Gen Bank Accession #M12674) (Homo sapiens, UniProt P03372); assay: Estrogen receptor binding, competition with [125I]-estradiol, ER-α
T2 construct: made in house; host or cells: in vitro transcription/translation, TNT T7 Quick-Coupled reticulocyte lysate (Promega Cat.#L1170)
T2 sequence (P03372 1-595): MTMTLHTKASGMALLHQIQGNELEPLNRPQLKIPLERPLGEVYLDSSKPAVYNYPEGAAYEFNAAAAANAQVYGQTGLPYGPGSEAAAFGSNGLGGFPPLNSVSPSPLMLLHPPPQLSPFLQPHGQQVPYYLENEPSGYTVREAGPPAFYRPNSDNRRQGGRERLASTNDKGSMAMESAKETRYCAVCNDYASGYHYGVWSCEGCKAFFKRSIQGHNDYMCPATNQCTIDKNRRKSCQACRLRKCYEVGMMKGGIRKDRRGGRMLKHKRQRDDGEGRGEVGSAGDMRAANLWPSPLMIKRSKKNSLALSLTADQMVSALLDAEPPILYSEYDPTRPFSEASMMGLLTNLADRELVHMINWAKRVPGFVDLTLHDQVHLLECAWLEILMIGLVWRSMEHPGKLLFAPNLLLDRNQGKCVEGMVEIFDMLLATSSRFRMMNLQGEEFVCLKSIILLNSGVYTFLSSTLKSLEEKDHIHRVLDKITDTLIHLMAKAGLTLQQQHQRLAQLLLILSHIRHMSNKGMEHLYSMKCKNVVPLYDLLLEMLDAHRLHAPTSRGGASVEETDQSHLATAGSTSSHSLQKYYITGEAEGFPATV
Method: as §1, §2, §3, §4

ER = assay: Scatchard analysis of ligand binding affinity on receptor preparation; conditions: Scatchard analysis at receptor dilutions giving reported Kis and signal:noise ~10; subtype not specified; read-out: KD for [125I]-estradiol
Method: The volume of receptor-programmed reticulocyte lysate to be added to the binding assay was determined independently from two measurements made on each batch of receptor prepared. First, Kis were determined for standard compounds using a series of dilutions of the receptor preparation. Scatchard analysis of ligand binding affinity was performed at the receptor dilutions that produced reported Kis for these compounds and an acceptable signal:noise ratio (˜10).

[3] = competition with 150 pM [125I]-estradiol, receptor-programmed reticulocyte lysate, overnight at 4° C., Cheng-Prushoff from IC50, read-out: ER-β Ki
[4] = competition with 150 pM [125I]-estradiol, receptor-programmed reticulocyte lysate, overnight at 4° C., Cheng-Prushoff from IC50, read-out: ER-α Ki

T1 sequence (Q92731 54-530 limits assumed): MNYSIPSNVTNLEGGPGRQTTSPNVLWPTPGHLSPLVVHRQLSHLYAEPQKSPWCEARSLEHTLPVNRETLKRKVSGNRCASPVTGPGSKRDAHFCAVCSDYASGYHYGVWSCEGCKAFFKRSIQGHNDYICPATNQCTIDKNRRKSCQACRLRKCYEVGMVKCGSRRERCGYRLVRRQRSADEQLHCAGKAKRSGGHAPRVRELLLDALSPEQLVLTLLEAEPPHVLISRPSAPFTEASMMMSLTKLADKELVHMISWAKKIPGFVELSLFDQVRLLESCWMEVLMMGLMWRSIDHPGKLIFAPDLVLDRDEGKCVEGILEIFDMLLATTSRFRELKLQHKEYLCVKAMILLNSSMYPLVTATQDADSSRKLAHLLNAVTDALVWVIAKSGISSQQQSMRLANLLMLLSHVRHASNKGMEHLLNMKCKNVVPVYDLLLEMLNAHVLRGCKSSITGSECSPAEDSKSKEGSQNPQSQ

SMILES | Ki [1, 3] | Ki [2, 4] | Kd (ER) | Ki [1] | Ki [2]
COc1cc(-c2coc3cc(O)cc(O)c3c2=O)ccc1O [compound 9] | 0.143 µM | > 3 µM |  |  | 
CC12CCC3c4ccc(O)cc4CCC3C1CC([125I])C2O (stereo not drawn) [[^125I]-estradiol, [^125I]-16α-iodo-3,17β-estradiol] |  |  | 0.0001 to 0.001 µM |  | 
O=c1c(-c2cccc(O)c2)coc2cc(O)cc(O)c12 [compound 15] | 0.015 µM | 0.9 µM |  |  | 
Cc1cc(-c2coc3cc(O)cc(O)c3c2=O)cc(C)c1O [compound 10] | 0.025 µM | > 3 µM |  |  | 
O=c1c(-c2ccc(F)cc2)coc2cc(O)cc(O)c12 [compound 11] | 0.1 µM | > 3 µM |  |  | 
O=c1c(-c2cccs2)coc2cc(O)cc(O)c12 [compound 17] | 0.0033 µM | > 3 µM |  |  | 
O=c1c(-c2ccc(O)cc2Cl)coc2cc(O)cc(O)c12 [Compound No. 2] | 0.00055 µM | 0.056 µM |  |  | 
Cc1cc(O)ccc1-c1coc2cc(O)cc(O)c2c1=O [compound 3] | 0.0012 µM | 0.061 µM |  |  | 
O=c1c(-c2ccccc2O)coc2cc(O)cc(O)c12 [compound 16] | 0.11 µM | > 3 µM |  |  | 
O=c1c(-c2ccc(O)c(Cl)c2)coc2cc(O)cc(O)c12 [compound 5] | 0.0012 µM | 1.1 µM |  |  | 
C=CCc1cc(-c2coc3cc(O)cc(O)c3c2=O)ccc1O [compound 7] | 0.0032 µM | > 3 µM |  |  | 
O=c1c(-c2ccc(O)c(O)c2)coc2cc(O)cc(O)c12 [compound 1] | 0.00215 µM | 0.605 µM |  |  | 
O=c1c(-c2ccc3c(c2)OCO3)coc2cc(O)cc(O)c12 [compound 12] | 0.022 µM | > 3 µM |  |  | 
Cc1c(-c2ccc(O)cc2)c(=O)oc2cc(O)ccc12 [Compound No. 28, 3-(4-hydroxyphenyl)-7-hydroxy-4-methylcoumarin] | 0.012 µM | 0.322 µM |  |  | 
O=c1c(-c2ccc(O)c(Br)c2)coc2cc(O)cc(O)c12 [compound 6, (3-Bromo-4-hydroxyphenyl)-5,7-dihydroxy-4H-1-benzopyran-4-one] | 0.00125 µM | 0.439 µM |  |  | 
O=c1c(-c2ccc3ccccc3c2)coc2cc(O)cc(O)c12 [compound 14] | 0.15 µM | > 3 µM |  |  | 
O=c1c(-c2ccc(O)c(F)c2)coc2cc(O)cc(O)c12 [compound 4] | 0.0005 µM | 0.074 µM |  |  | 
COc1cc(O)c2c(=O)c(-c3ccc(O)cc3)coc2c1 [compound 22] |  |  |  | 0.05 µM | > 3 µM
Nc1ccc(-c2coc3cc(O)cc(O)c3c2=O)cc1 [compound 13] | 0.006 µM | > 3 µM |  |  | 
CCCc1cc(-c2coc3cc(O)cc(O)c3c2=O)ccc1O [compound 8] | 0.00075 µM | > 3 µM |  |  | 

Continued, in another order:

Ki [1, 3] | Ki [2, 4] | SMILES | Kd (ER) | Ki [1] | Ki [2]
0.01 µM | 0.321 µM | O=c1c(-c2ccc(O)cc2)c(C(F)(F)F)oc2cc(O)ccc12 [compound 25] |  |  | 
0.122 µM | > 3 µM | O=c1c(-c2ccc3ccccc3n2)coc2cc(O)cc(O)c12 [compound 19] |  |  | 
0.002 µM | 0.155 µM | Oc1ccc(C2COc3cc(O)ccc3C2)cc1 (stereo not drawn) [compound 46] |  |  | 
0.0046 µM |  | O=c1oc2ccc(O)cc2cc1-c1ccc(O)cc1 [compound 41] |  |  | 
0.00033 µM | 0.088 µM | O=c1cc(-c2ccc(O)cc2)oc2ccc(O)cc12 [compound 36] |  |  | 
0.0049 µM | 0.22 µM | O=c1oc2cc(O)ccc2cc1-c1ccc(O)cc1 [compound 38] |  |  | 
0.051 µM | > 3 µM | Cc1c(-c2ccc(Cl)cc2)c(=O)oc2cc(O)ccc12 [compound 42] |  |  | 
0.024 µM | 0.5 µM | Cc1c(-c2ccc(O)cc2)c(=O)oc2c(C)c(O)ccc12 [compound 43] |  |  | 
0.0005 µM | 0.2 µM | Cc1cc(O)cc2occ(-c3ccc(O)cc3)c(=O)c12 [compound 23] |  |  | 
0.033 µM | > 3 µM | COc1c(O)cc(O)c2c(=O)c(-c3ccc(O)cc3)coc12 [compound 32] |  |  | 
0.0095 µM | 0.095 µM | O=c1c(-c2ccccc2)c(-c2ccccc2)oc2cc(O)cc(O)c12 [compound 34] |  |  | 
0.042 µM | > 3 µM | O=c1c(-c2ccc(Cl)cc2)coc2cc(O)cc(O)c12 [compound 21] |  |  | 
0.017 µM | > 3 µM | O=c1c(-c2ccsc2)coc2cc(O)cc(O)c12 [compound 18] |  |  | 
0.0033 µM | > 3 µM | O=c1c(-c2ccc(O)c(F)c2)coc2cc(O)ccc12 [compound 24] |  |  | 
0.079 µM | > 3 µM | O=c1oc2cc(O)cc(O)c2cc1-c1ccc(O)cc1 [compound 39] |  |  | 
0.05 µM | > 3 µM | O=c1c(-c2ccccc2F)coc2cc(O)cc(O)c12 [compound 33] |  |  | 
0.0057 µM |  | O=C1c2c(O)cc(O)cc2CCC1c1ccc(O)cc1 (stereo not drawn) [compound 27] |  |  | 
0.004 µM | 0.08 µM | CCc1c(-c2ccc(O)cc2)c(=O)oc2cc(O)ccc12 [compound 29] |  |  | 
0.025 µM | > 3 µM | O=c1c(-c2ccc(Br)cc2)coc2cc(O)cc(O)c12 [compound 20] |  |  | 
0.0037 µM | 1 µM | O=C1c2c(O)cc(O)cc2OCC1c1ccc(O)cc1 (stereo not drawn) [compound 26] |  |  | 
0.00073 µM | 0.075 µM | O=C1CC(c2ccc(O)cc2)Cc2ccc(O)cc21 (stereo not drawn) [compound 37] |  |  | 
0.019 µM | 0.05 µM | O=c1c(-c2ccccc2)c(-c2ccccc2)oc2cc(O)ccc12 [compound 35] |  |  | 
